Measured values reported in patent publication US8158587B2, “Compound having histone deacetylase-inhibiting activity, and pharmaceutical composition comprising the compound as an active ingredient” (Kyushu Institute of Technology, priority 2006, dated 2012).

Tests used:
[1] = biological target: T1, human HDAC4 (Homo sapiens, UniProt P56524); experiment: HDAC-inhibiting activity, coumarin-labeled acetylated histone peptide assay; format: biochemical; conditions: human HDAC4 from transfected 293T cells; 37° C., 30 minutes; read-out: HDAC-inhibiting activity IC50 HDAC4
T1 construct: made in house; host or cells: 293T cells (transient transfection, anti-FLAG immunoprecipitation, FLAG peptide elution)
Method: In carrying out HDAC-inhibiting activity measurements, HDAC solutions were prepared in the following manner. […] The human HDAC1 expression vector used was pcDNA3-HD1 (Yang, W. M., Yao, Y. L., Sun, […]. & Seto, E. (1997) J. Biol. Chem. 272, 28001-28007), the human HDAC4 expression vector used was pcDNA3-HD4 ([…]., Nagase, […]. Biol. Chem. 274, 11713-11720), and the murine HDAC6 expression vector used was pcDNA3-mHDA2/HDAC6 ([…]. Biol. Chem. 274, 2440-2445). After 24 hours of incubation, cells were recovered, washed with PBS, suspended in lysis buffer (50 mM Tris-HCl (pH 7.5), 120 mM NaCl, 5 mM EDTA, 0.5% Nonidet P-40), and sonicated. The supernatant was collected by centrifugation and then deprived of nonspecific proteins using Protein A/G plus agarose beads (Santa Cruz Biotechnologies, Inc.). Thereafter, anti-FLAG M2 antibody (Sigma-Aldrich Inc.) was added, and the reaction was allowed to proceed at 4° C. for 2 hours. To this were added agarose beads, the reaction was allowed to proceed at 4° C. for 3 hours, and the agarose beads were washed three times with lysis buffer and then once with HD buffer (20 mM Tris-HCl (pH 8.0), 150 mM NaCl, 10% glycerol). […] HDAC-inhibiting activity evaluation in each in vitro system was made as follows. Each test compound was dissolved in DMSO, a stock solution with a concentration of 10 mM was thus prepared and this was used as an inhibitor stock solution. The assay was carried out by incubating the HDAC solution and a coumarin-labeled acetylated histone peptide solution in the presence of the test compound at 37° C. for 30 minutes (reaction volume 20 μl). To the reaction mixture was added 30 μl of trypsin, and the aminomethylcoumarin released by the enzymatic reaction was assayed using a fluorescent plate reader. In a negative control assay, no inhibitor was added to the reaction system and the same procedure was carried out.

[2] = tested on: human wild type p21 promoter; experiment: p21 promoter assay (luciferase) in MFLL-9 cells; format: cell-based; conditions: 20 hours, concentration giving 1000% luminescence relative to negative control (100%)
Method: As an HDAC-inhibiting activity in an […] system, the following measurement was carried out using the p21 promoter inducing activity as an index. MFLL-9 cells used in the experiment are cells stably retaining a fusion gene (Dr. B. Vogelstaein) from the human wild type p21 promoter and luciferase gene. They were cultured using phenol red-free DMEM supplemented with 10% FBS in a steam-saturated incubator at 37° C. in the presence of 5% carbon dioxide. These MFLL-9 cells were sowed onto a 96-well microplate at a cell density of 2×10^4 cells/well and, after 24 hours of cultivation in 99 μl, per well, of the medium mentioned above, each test compound solution was added, followed by 20 hours of incubation. […] In a negative control, the same procedure was carried out without adding any inhibitor to the reaction system.
Using Luciferase Assay Reagent (Promega), the intensity of the luminescence due to the product of the enzymatic reaction involving luciferase expressed within cells was measured.

[3] = tested on: colon cancer cell line HCC2998; experiment: Human cancer cell line panel, proliferation (sulforhodamine B); format: cell-based; conditions: HCC2998, 2 days of cultivation; read-out: 50% inhibitory concentration, proliferation
From the text: (§1) The characteristics of the human cancer cell proliferation-inhibiting activity of the compounds of the present invention were examined by the “method of evaluating the mechanisms of action of compounds using a panel of human cancer cell lines” as proposed by Yamori et al. (cf. Gan to Kagaku Ryoho (Cancer and Chemotherapy) 29 Suppl. II (2002) and Cancer Chemother. Pharmacol. 52 Suppl. I, S74-79 (2003)).
(§2) This system includes […] (7 lung cancer, 6 stomach cancer, 5 colon cancer, 5 ovarian cancer, 6 brain tumor, […], 2 kidney cancer and 2 prostate cancer cell lines as well as one melanoma line) and the method comprises measuring the in vitro drug susceptibilities of those cancer cell lines and expressing the differences in drug susceptibility among the respective cancer cell lines as a fingerprint. […] By utilizing this property, it is possible to estimate the mechanisms of action of a compound. The above method is also characterized in that an anticancer substance showing new and unique mechanisms of action different from those of the existing anticancer agents can be selected.
(§3) Cancer cells of each cell line are sowed onto a 96-well plate, a sample solution is added on the next day and, after 2 days of cultivation, the cell proliferation is measured by colorimetry using sulforhodamine B. The deviations in effective concentration for the respective cancer cell lines from the mean effective drug concentration for the 39 cancer cell lines subjected to measurement are calculated and shown in the form a fingerprint.

[4] = tested on: colon cancer cell line HT-29; experiment: as above; format: cell-based; conditions: HT-29, 2 days of cultivation; read-out: 50% inhibitory concentration, proliferation
From the text: as §1, §2, §3

[5] = tested on: lung cancer cell line A549; experiment: as above; format: cell-based; conditions: A549, 2 days of cultivation; read-out: 50% inhibitory concentration, proliferation
From the text: as §1, §2, §3

[6] = tested on: lung cancer cell line DMS114; experiment: as above; format: cell-based; conditions: DMS114, 2 days of cultivation; read-out: 50% inhibitory concentration, proliferation
From the text: as §1, §2, §3

[7] = tested on: lung cancer cell line NCI-H226; experiment: as above; format: cell-based; conditions: NCI-H226, 2 days of cultivation; read-out: 50% inhibitory concentration, proliferation
From the text: as §1, §2, §3

[8] = tested on: lung cancer cell line NCI-H23; experiment: as above; format: cell-based; conditions: NCI-H23, 2 days of cultivation; read-out: 50% inhibitory concentration, proliferation
From the text: as §1, §2, §3

[9] = tested on: lung cancer cell line NCI-H460; experiment: as above; format: cell-based; conditions: NCI-H460, 2 days of cultivation; read-out: 50% inhibitory concentration, proliferation
From the text: as §1, §2, §3

[10] = tested on: melanoma cell line LOX-IMVI; experiment: as above; format: cell-based; conditions: 2 days of cultivation, read-out: 50% inhibitory concentration, proliferation
From the text: as §1, §2, §3

[11] = tested on: ovarian cancer cell line OVCAR-5; experiment: as above; format: cell-based; conditions: OVCAR-5, 2 days of cultivation; read-out: 50% inhibitory concentration, proliferation
From the text: as §1, §2, §3

[12] = tested on: ovarian cancer cell line OVCAR-8; experiment: as above; format: cell-based; conditions: OVCAR-8, 2 days of cultivation; read-out: 50% inhibitory concentration, proliferation
From the text: as §1, §2, §3

[13] = tested on: prostate cancer cell line DU-145; experiment: as above; format: cell-based; conditions: DU-145, 2 days of cultivation; read-out: 50% inhibitory concentration, proliferation
From the text: as §1, §2, §3

[14] = tested on: stomach cancer cell line MKN1; experiment: as above; format: cell-based; conditions: MKN1, 2 days of cultivation; read-out: 50% inhibitory concentration, proliferation
From the text: as §1, §2, §3

T1 sequence (P56524 whole entry): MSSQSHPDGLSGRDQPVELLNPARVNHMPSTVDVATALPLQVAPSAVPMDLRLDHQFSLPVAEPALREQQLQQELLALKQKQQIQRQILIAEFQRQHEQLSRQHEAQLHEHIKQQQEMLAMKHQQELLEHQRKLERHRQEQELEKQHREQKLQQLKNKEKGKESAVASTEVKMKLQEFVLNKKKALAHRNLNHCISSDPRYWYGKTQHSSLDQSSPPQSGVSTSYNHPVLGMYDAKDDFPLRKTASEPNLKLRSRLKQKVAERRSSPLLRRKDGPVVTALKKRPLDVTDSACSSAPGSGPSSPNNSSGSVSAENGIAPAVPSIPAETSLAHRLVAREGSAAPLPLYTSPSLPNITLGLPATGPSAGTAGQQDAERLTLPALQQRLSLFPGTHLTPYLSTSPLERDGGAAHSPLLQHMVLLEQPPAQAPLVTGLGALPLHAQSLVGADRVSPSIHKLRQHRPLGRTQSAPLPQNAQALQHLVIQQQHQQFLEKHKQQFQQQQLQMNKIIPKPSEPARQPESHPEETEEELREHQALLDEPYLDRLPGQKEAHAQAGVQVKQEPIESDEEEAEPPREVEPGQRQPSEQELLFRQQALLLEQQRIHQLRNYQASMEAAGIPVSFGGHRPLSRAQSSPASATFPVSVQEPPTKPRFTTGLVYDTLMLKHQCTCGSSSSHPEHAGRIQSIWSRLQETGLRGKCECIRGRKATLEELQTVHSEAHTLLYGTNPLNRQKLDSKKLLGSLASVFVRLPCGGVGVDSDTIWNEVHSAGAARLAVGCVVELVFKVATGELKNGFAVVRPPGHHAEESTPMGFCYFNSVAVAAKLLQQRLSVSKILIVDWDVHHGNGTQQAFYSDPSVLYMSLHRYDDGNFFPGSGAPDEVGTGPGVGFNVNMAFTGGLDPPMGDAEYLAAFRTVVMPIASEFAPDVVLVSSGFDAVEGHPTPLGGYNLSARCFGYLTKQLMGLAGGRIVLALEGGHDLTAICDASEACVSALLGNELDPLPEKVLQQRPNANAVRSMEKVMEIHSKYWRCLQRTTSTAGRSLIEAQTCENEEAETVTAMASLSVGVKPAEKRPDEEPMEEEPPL
T1 sequence (O15379 whole entry, further chain): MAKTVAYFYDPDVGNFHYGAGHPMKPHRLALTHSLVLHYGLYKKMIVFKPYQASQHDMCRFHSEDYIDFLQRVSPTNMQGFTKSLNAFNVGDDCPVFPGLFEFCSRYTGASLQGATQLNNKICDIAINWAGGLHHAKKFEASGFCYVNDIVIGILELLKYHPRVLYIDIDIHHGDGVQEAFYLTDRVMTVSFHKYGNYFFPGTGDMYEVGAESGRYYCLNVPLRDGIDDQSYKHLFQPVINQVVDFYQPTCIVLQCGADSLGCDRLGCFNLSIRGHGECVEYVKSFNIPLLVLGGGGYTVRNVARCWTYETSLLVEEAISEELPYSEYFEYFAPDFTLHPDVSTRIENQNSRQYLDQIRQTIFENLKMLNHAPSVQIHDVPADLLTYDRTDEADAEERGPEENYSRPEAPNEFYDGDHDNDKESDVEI

| Structure (SMILES) | IC50 [1] [µM] | p21 promoter activity EC1000 [2] [µM] | IC50 [3] [µM] | IC50 [4] [µM] | IC50 [5] [µM] | IC50 [6] [µM] | IC50 [7] [µM] | IC50 [8] [µM] | IC50 [9] [µM] | IC50 [10] [µM] | IC50 [11] [µM] | IC50 [12] [µM] | IC50 [13] [µM] | IC50 [14] [µM] |
| --- | --- | --- | --- | --- | --- | --- | --- | --- | --- | --- | --- | --- | --- | --- |
| CC1(C)NC(=O)[C@H](CCCCCSCc2ccncc2)NC(=O)[C@H]2CCCN2C(=O)[C@H](Cc2ccccc2)NC1=O [Ky-26, cyclo(-L-Am7(4-pyridylmethyl)-Aib-L-Phe-D-Pro-)] | 0.025 | 0.010 | ≤ 0.1 | ≤ 0.1 | ≤ 0.1 | ≤ 0.1 | ≤ 0.1 | ≤ 0.1 | ≤ 0.1 | ≤ 0.1 | ≤ 0.1 | ≤ 0.1 | ≤ 0.1 | ≤ 0.1 |
| CC(=O)CSCCCCC[C@@H]1NC(=O)[C@H]2CCCN2C(=O)[C@H](Cc2ccccc2)NC(=O)C(C)(C)NC1=O [Ky-72, cyclo(-L-Am7(acetonyl)-Aib-L-Phe-D-Pro-)] | 1.6 | 0.031 | ≤ 0.1 | ≤ 0.1 | ≤ 0.1 | ≤ 0.1 | ≤ 0.1 | ≤ 0.1 | ≤ 0.1 | ≤ 0.1 | ≤ 0.1 | ≤ 0.1 | ≤ 0.1 | ≤ 0.1 |
